These results are taken from US8883963B2 (Cadila Healthcare Limited, priority 2007, dated 2014).

Non-standard residues stand in square brackets, D forms with d. Residues, ends and D or L forms follow the SMILES beside them. ξ: configuration not given here. ξBip(2'-Et-4'-OMe) = CCc1cc(OC)ccc1-c1ccc(CC(N)C(=O)O)cc1; ξNva(5-(3-Cl-Ph)) = NC(CCCc1cccc(Cl)c1)C(=O)O; Ac5c = NC1(C(=O)O)CCCC1

One series has as its target T1, Human GLP-1 receptor (Homo sapiens, UniProt P43220).
T1 construct: The full-length cDNA was cloned in pcDNA3.1(+); expressed in transfected cells
Briefly: In vitro Human GLP-1 R agonist activity (cyclic AMP determination) in CHO/human GLP1R cells. Format: cell-based.

In the next series the target is T2, human glucagon receptor (Homo sapiens, UniProt P47871).
T2 construct: The full-length cDNA was cloned in pcDNA3.1 (Invitrogen); expressed in transfected cells
T2 sequence (P47871 26-477): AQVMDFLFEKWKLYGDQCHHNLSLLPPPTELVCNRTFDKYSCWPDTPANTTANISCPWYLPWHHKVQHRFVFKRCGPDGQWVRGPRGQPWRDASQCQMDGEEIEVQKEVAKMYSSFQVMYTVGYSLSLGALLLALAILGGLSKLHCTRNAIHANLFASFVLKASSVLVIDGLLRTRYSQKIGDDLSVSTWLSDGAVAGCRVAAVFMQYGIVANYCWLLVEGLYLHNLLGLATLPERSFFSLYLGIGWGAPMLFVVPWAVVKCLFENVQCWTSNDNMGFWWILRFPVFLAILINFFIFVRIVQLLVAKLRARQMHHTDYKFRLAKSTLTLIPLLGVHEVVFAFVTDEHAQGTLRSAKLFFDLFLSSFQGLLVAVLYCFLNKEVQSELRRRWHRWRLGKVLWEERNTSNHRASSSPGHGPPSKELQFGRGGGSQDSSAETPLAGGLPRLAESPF
Briefly: In vitro human glucagon antagonist activity (inhibition of cAMP production) in CHO/human glucagon R cells. Conditions: with saturated concentration of glucagon peptide. Type of series: cell-based.

In a further series the target is DPP IV (Homo sapiens, UniProt P27487). As to the kind of experiment: Stability against DPP IV enzyme. Type of series: in vitro ADME. The settings on record: 37° C.; for % degradation of peptidomimetics in 24 h when incubated with DPP-IV enzyme: 2 μM peptidomimetic; for half-life at 2 μM: DPP IV enzyme, pH 7.8, 2 μM peptidomimetic, read-out: half-life (t1/2) when incubated with DPP-IV enzyme. The procedure: (§1) Reactions were terminated by the addition of TFA/H2O (15 mL, 10% (v/v)). […] The column was equilibrated with TFA/H20, at a flow rate of 1 mL/min.
Sequence of DPP IV (P27487 whole entry, species assumed): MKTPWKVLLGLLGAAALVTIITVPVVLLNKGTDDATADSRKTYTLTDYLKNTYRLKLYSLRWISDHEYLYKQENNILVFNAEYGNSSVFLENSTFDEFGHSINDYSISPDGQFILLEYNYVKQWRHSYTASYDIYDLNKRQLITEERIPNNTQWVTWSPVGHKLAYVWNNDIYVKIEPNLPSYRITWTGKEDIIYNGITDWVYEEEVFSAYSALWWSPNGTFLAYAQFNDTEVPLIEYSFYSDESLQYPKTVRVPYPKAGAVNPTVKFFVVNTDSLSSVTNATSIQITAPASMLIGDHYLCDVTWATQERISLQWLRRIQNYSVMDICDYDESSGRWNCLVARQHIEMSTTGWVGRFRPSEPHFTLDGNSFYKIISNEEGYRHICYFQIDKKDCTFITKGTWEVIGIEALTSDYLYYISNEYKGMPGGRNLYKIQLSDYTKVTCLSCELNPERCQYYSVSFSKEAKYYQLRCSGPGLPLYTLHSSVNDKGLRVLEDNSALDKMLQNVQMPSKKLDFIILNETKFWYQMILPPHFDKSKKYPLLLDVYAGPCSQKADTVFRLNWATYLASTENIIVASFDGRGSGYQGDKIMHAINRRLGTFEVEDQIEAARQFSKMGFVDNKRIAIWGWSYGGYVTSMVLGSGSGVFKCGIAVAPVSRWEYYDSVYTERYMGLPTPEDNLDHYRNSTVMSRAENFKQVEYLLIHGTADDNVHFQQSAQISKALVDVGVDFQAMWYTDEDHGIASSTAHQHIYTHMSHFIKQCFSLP

A short description of series [1]: Stability in human plasma. Format: in vitro ADME. The settings on record: 2 μM peptidomimetic, pooled human plasma, 37° C.; for half-life at 2 μM: pH 7.8, read-out: half-life (t1/2) when incubated with human plasma. The procedure: as §1
The nature of series [2]: Stability in simulated gastric fluid. Type of series: in vitro ADME. Conditions: 2 μM peptidomimetic, simulated gastric fluid pH 1.5, 37° C.; for half-life at 2 μM: read-out: half-life (t1/2) when incubated with simulated gastric fluid. The procedure:
as §1

Series [3] can be described thus: Stability in simulated intestinal fluid. Type of series: in vitro ADME. The settings on record: 2 μM peptidomimetic, simulated intestinal fluid pH 7.5, 37° C.; for half-life at 2 μM: read-out: half-life (t1/2) when incubated with simulated intestinal fluid. The procedure:
as §1

The nature of series [4]: Stability in liver microsomes. Type of series: in vitro ADME. The settings on record: 2 μM peptidomimetic, human liver microsomes, 37° C.; for half-life at 2 μM: pH 7.8, read-out: half-life (t1/2) when incubated with liver microsomes. The method, then: as §1
On the technique in general: Microsomes from liver hold many membrane-bound enzymes, among them those of drug oxidation.

The test system of series [5] is RIN5F (Rat Insulinoma) cells. Briefly: In vitro glucose-dependent insulin secretion (RIN5F cell assay screening protocol). The settings on record: 16.7 mM glucose load. Type of series: cell-based.

T1 sequence (P43220 24-463): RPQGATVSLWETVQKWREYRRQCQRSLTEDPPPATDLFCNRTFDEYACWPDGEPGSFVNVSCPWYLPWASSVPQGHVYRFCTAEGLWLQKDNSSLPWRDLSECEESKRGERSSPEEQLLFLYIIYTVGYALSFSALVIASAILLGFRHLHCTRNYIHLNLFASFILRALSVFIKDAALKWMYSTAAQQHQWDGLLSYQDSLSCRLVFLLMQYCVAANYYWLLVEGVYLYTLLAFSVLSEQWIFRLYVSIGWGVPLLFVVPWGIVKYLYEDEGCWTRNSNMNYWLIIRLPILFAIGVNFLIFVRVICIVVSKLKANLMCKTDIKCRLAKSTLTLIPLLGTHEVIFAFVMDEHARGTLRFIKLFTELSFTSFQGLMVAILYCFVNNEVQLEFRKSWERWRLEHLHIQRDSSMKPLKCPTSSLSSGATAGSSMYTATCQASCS

Take `CCc1cc(OC)ccc1-c1ccc(CC(NC(=O)[C@H](CC(=O)O)NC(=O)[C@H](CO)NC(=O)[C@@H](NC(=O)C(C)(Cc2ccccc2F)NC(=O)[C@@H](NC(=O)CNC(=O)C(CCC#N)NC(=O)C(C)(C)NC(=O)[C@@H](N)Cc2c[nH]cn2)[C@H](C)O)[C@H](C)O)C(=S)NC(CCCc2ccccc2F)C(N)=O)cc1` (single isomer, unassigned) [compound 168]: the “Human GLP-1 R activity (cAMP release), % activity with respect to control” value on Human GLP-1 receptor (1 nM test compound) turned out to be 96 ± 0.09%; on Human GLP-1 receptor (10 nM test compound), 99 ± 0.07%; on Human GLP-1 receptor (100 nM test compound), 99 ± 0.04%; at Human GLP-1 receptor (1 μM test compound), 99 ± 0.01%; at Human GLP-1 receptor (10 μM test compound), 99 ± 0.08%. In addition, the “Human Glucagon receptor antagonistic activity shown as inhibition of cAMP production of Glucagon peptide” value at human glucagon receptor (1 nM test compound) came to 21 ± 0.11 pmol/ml/μg prt; at human glucagon receptor (10 nM test compound) it was 19 ± 0.02 pmol/ml/μg prt; at human glucagon receptor (100 nM test compound) it was 18 ± 0.07 pmol/ml/μg prt; on human glucagon receptor (1 μM test compound), 18 ± 0.03 pmol/ml/μg prt; on human glucagon receptor (10 μM test compound), 16 ± 0.02 pmol/ml/μg prt. Further, the “% degradation of peptidomimetics in 24 h when incubated with DPP-IV enzyme” value (shortened to “% degradation … with DPP-IV enzyme”) on DPP IV amounted to 72%. Moreover, the half-life at 2 μM was 9 h at DPP IV, 8 h in series [1] and 1 h in series [4]. In addition, in series [1], the “% degradation of peptidomimetics in 24 h when incubated with human plasma” value (shortened to “% degradation … with human plasma”) was found to be 70%. In series [2], the “half-life (t1/2) when incubated with simulated gastric fluid” value was “(8) h”. Further, the “% degradation of peptidomimetics in 24 h when incubated with simulated gastric fluid” value (from here on “% degradation … with simulated gastric fluid”) in series [2] was 12%. Further, in series [3], the “half-life (t1/2) when incubated with simulated intestinal fluid” value is reported as “(6) h”. Also, the “% degradation of peptidomimetics in 24 h when incubated with simulated intestinal fluid” value (“% degradation … with simulated intestinal fluid” below) in series [3] is reported as 42%. For the same molecule, the “% degradation of peptidomimetics in 24 h when incubated with liver microsomes” value (from here on “% degradation … with liver microsomes”) in series [4] worked out at 78%.
In series [5] (0.1 nM test compd.), `CCc1cc(OC)ccc1-c1ccc(CC(NC(=O)[C@H](CC(=O)O)NC(=O)[C@H](CO)NC(=O)[C@@H](NC(=O)[C@H](Cc2ccccc2)NC(=O)[C@@H](NC(=O)CNC(=O)[C@H](CCC(N)=O)NC(=O)C2(NC(=O)[C@@H](N)Cc3c[nH]cn3)CCCC2)[C@@H](C)O)[C@@H](C)O)C(=O)NC(CCCc2cccc(Cl)c2)C(N)=O)cc1` (stereo partly shown) [compound 27] (H-H[Ac5c]QGTFTSD[ξBip(2'-Et-4'-OMe)][ξNva(5-(3-Cl-Ph))]-NH2) came in with an Insulin secretion of 16.4 ± 0.12 pg/µg/h. The molecule also registered an Insulin secretion in series [5] (1 nM test compd.) of 22.7 ± 0.17 pg/µg/h. The Insulin secretion in series [5] (10 nM test compd.) is 36.6 ± 0.05 pg/µg/h. Besides, at DPP IV, the “% degradation … with DPP-IV enzyme” value turned out to be 00% and the half-life at 2 μM is greater than 24 h. Also, in series [1], the “% degradation … with human plasma” value was 00% and the half-life at 2 μM is greater than 24 h. For the same molecule, in series [2], the “% degradation … with simulated gastric fluid” value is reported as 00% and the half-life at 2 μM was greater than 24 h. In series [3], the “% degradation … with simulated intestinal fluid” value was 00% and the half-life at 2 μM is greater than 24 h. Also, in series [4], the “half-life (t1/2) when incubated with liver microsomes” value is listed as “(5) h” and the “% degradation … with liver microsomes” value amounted to 31%.
For the molecule `CCc1cc(OC)ccc1-c1ccc(CC(C(=O)N(C)C(CCCc2ccccc2F)C(N)=O)N(C)C(=O)[C@H](CC(=O)O)N(C)C(=O)[C@H](CO)NC(=O)[C@@H](NC(=O)C(C)(Cc2ccccc2F)NC(=O)[C@@H](NC(=O)CNC(=O)C(CCC#N)NC(=O)C(C)(C)NC(=O)[C@@H](N)Cc2c[nH]cn2)[C@H](C)O)[C@H](C)O)cc1` (single isomer, unassigned) [compound 156], the “Human GLP-1 R activity (cAMP release), % activity with respect to control” value at Human GLP-1 receptor (1 nM test compound) is given as 86 ± 0.11%; at Human GLP-1 receptor (10 nM test compound) it was 99 ± 0.09%; at Human GLP-1 receptor (100 nM test compound), 99 ± 0.06%; at Human GLP-1 receptor (1 μM test compound) it was 99 ± 0.14%; on Human GLP-1 receptor (10 μM test compound), 99 ± 0.19%. In addition, the “Human Glucagon receptor antagonistic activity shown as inhibition of cAMP production of Glucagon peptide” value amounted to 5 ± 0.01 pmol/ml/μg prt at human glucagon receptor (1 nM test compound); 2 ± 0.17 pmol/ml/μg prt on human glucagon receptor (10 nM test compound); 0 pmol/ml/μg prt at human glucagon receptor (100 nM test compound); 0 pmol/ml/μg prt at human glucagon receptor (1 μM test compound); 0 pmol/ml/μg prt on human glucagon receptor (10 μM test compound). Further, the “% degradation … with DPP-IV enzyme” value on DPP IV came to 70%. Further, the half-life at 2 μM was determined as 9 h at DPP IV, 8 h in series [1] and 1 h in series [4]. The “% degradation … with human plasma” value in series [1] was determined as 71%. Further, the “half-life (t1/2) when incubated with simulated gastric fluid” value in series [2] is “(8) h”. Moreover, the “% degradation … with simulated gastric fluid” value in series [2] was 14%. For the same molecule, in series [3], the “half-life (t1/2) when incubated with simulated intestinal fluid” value is on record as “(6) h”. Also, the “% degradation … with simulated intestinal fluid” value in series [3] is 40%. Besides, the “% degradation … with liver microsomes” value in series [4] stood at 78%.
In the case of `CCc1cc(OC)ccc1-c1ccc(CC(NC(=O)[C@H](CC(=O)O)NC(=O)[C@H](CO)NC(=O)[C@@H](NC(=O)C(C)(Cc2ccccc2F)NC(=O)[C@@H](NC(=O)CNC(=O)C(CCC#N)NC(=O)C(C)(C)NC(=O)[C@H](Cc2c[nH]cn2)NC(C)=O)[C@@H](C)O)[C@@H](C)O)C(=O)NC(CCCc2ccccc2F)C(N)=O)cc1` (single isomer, unassigned) [compound 207], the “Human GLP-1 R activity (cAMP release), % activity with respect to control” value at Human GLP-1 receptor (1 nM test compound) was determined as 40 ± 0.11%; at Human GLP-1 receptor (10 nM test compound) it was 81 ± 0.09%; on Human GLP-1 receptor (100 nM test compound), 89 ± 0.06%; on Human GLP-1 receptor (1 μM test compound), 96 ± 0.14%; on Human GLP-1 receptor (10 μM test compound), 99 ± 0.19%. The “Human Glucagon receptor antagonistic activity shown as inhibition of cAMP production of Glucagon peptide” value at human glucagon receptor (1 nM test compound), at human glucagon receptor (10 nM test compound), on human glucagon receptor (100 nM test compound), at human glucagon receptor (1 μM test compound) and on human glucagon receptor (10 μM test compound) was 0 pmol/ml/μg prt in each case. In addition, the “% degradation … with DPP-IV enzyme” value at DPP IV amounted to 00%. Besides, the half-life at 2 μM (at DPP IV; in series [1]; in series [2]; in series [3]) was greater than 24 h each time. Besides, in series [1], the “% degradation … with human plasma” value was 00%. Besides, the “% degradation … with simulated gastric fluid” value in series [2] is given as 00%. The “% degradation … with simulated intestinal fluid” value in series [3] is on record as 00%. The “half-life (t1/2) when incubated with liver microsomes” value in series [4] is listed as “(5) h”. In addition, the “% degradation … with liver microsomes” value in series [4] came out at 26%.
